According to patent US7553821B2, “Methods for selectively modulating survivin apoptosis pathways” (Yale University, priority 2000, dated 2009):
“Also recorded” adds a separate entry of the source.

How the values were obtained:
YUSAC-2 melanoma cells = assay: Apoptosis in Tet-regulated YUSAC-2 transfectants (DNA content, TUNEL, caspase-9 Western blot); format: cell-based, human; conditions: for G2/M and apoptotic (sub-G1) DNA content after transgene induction: stably transfected YUSAC-2 lines, Tet withdrawn (transgene expressed)
Description: Three YUSAC-2 melanoma cell lines stably transfected with survivin(T34A) in pTet splice were analyzed for DNA content by propidium iodide staining and flow cytometry in the presence (Tet+) or absence (Tet−) of Tet. The percentages of cells with sub-G1 (apoptotic) DNA content after a 3-d culture at 37° C. are indicated.
The experimental conditions are the same as in A, except that a subclone of YUSAC-2 transfectants, F5.C4 was analyzed in the presence (Tet+) or in the absence (Tet−) of Tet for internucleosomal DNA fragmentation by end-labeling with terminal deoxynucleotidyl transferase (TdT) and a peroxidase-conjugated anti-digoxigenin antibody.
Tet+ and Tet− F5.C4 cells characterized as described in FIG. 4, were harvested at the indicated time intervals after thymidine release and immunoblotted with an antibody to caspase-9. TNF+CHX, extract of HeLa cells treated with 10 ng/ml TNFα plus 10 μg/ml cycloheximide. Arrows, position of ˜46 kDa proform caspase-9, and ˜35 kDa and ˜37 kDa active caspase-9 bands.
Cells were then fixed, permeabilized and stained with propidium iodide for DNA content as described (Grossman et al., 1999). The marker indicates the sub-G1 fraction, corresponding to apoptotic cells.
Cells were fixed in 1% paraformaldehyde for 10 minutes at room temperature and then permeabilized with acetic acid and ethanol for 5 minutes at […]. Arrows indicate TUNEL-reactive (Shockett et al., 1995) cells with apoptotic morphology.
Transfection experiments. For transient transfection, HeLa cells in C-6 tissue culture plates (Costar, Cambridge, Mass.) at ˜60-70% confluency, were incubated in 1 ml of serum-free OptiMEM medium (Life Technologies, Gaithersburg, Md.) for 20 min, and transfected with 2.5 μg of the various plasmid cDNAs plus 9 μl Lipofectamine (Life Technologies). After a 5 h incubation at 37° C., the mixture was aspirated and substituted with complete growth medium for 48-72 h. To generate stable YUSAC-2 transfectants, a survivin(T34A) cDNA was inserted into the HindIII-SpeI sites of the pTet-splice vector (Dr. D. Schatz, Yale University School of Medicine), downstream of the regulatory sequences of the Tet-resistance operon (TetO). YUSAC-2 cells were transfected with 0.8 μg pTet-T34A, 0.8 μg of the transactivation/selection plasmid ptTA-Neo and 5 μl Lipofectamine in 1 ml of OptiMem. Forty-eight h after transfection, cells were re-plated at low density in 15×150 mm plates in growth medium containing 1.5 mg/ml Geneticin (G418, Life Technologies), 2 mM sodium hydroxide and 0.5 μg/ml Tet (Sigma, St. Louis, Mo.) (selection medium). […] Gated GFP-expressing cells were analyzed for DNA content by flow cytometry on a FACSort (Becton Dickinson, San Jose, Calif.) using a Cell Quest software. […]

F5.C4 tumors = assay: Effect on established F5.C4 tumors in mice; format: in vivo
Description: Error bars indicate standard deviation. Also shown are 5 representative growth curves from 15 animals in which tet was withheld (day 0) upon tumor formation (no symbols).
Next, the effect of survivin Thr^34→Ala on established tumors was assessed. Fifteen mice were injected with F5.C4 cells and tet was provided to permit tumor formation. Once tumors became apparent (20-50 mm^3), tet was withheld from the drinking water and tumors were monitored for 5 weeks. […] Rather, a spectrum of growth curves with some tumors failing to grow at all after tet was withdrawn was observed (FIG. 10A). […] In the two small F5.C4 tumors that formed in the absence of tet (Table I), a similar pattern of apoptotic cell death was seen (not shown).

Question: How did the “internucleosomal DNA fragmentation by TUNEL” value (YUSAC-2 melanoma cells; F5.C4 cells, Tet-deprived) turn out when “survivin(T34A): dominant-negative, non-phosphorylatable survivin mutant with Thr34→Ala substitution, expressed from transfected cDNA (also HA- or GFP-tagged)” was run?
Answer: stained intensely for internucleosomal DNA fragmentation by TUNEL

Question: And the “caspase-9 processing by Western blotting” value (YUSAC-2 melanoma cells; cell cycle synchronized Tet− F5.C4 cells after thymidine release)?
Answer: time-dependent cleavage of 46 kDa proform caspase-9 and generation of ˜35 kDa and ˜37 kDa active caspase-9 bands

Question: What about the “G2/M and apoptotic (sub-G1) DNA content after transgene induction” value (YUSAC-2 melanoma cells) of the same substance?
Answer: nearly complete loss of mitotic (G2/M) cells, and appearance of a prominent population with apoptotic (sub-G1) DNA content

Question: And the “G2/M and apoptotic (sub-G1) DNA content after transgene induction” value (YUSAC-2 melanoma cells; listed as Thr^34→Ala mutant)?
Answer: progressive time-dependent loss of mitotic (G2/M) cells and coincident accumulation of apoptotic cells

Question: And the “growth of established tumors after tet withdrawal” value (F5.C4 tumors; F5.C4 tumors 20-50 mm^3 at withdrawal, monitored for 5 weeks)?
Answer: None of the tumors grew at a rate comparable to F5.C4 tumors in animals maintained on tet

Question: And the “histologic analysis of tumors after transgene induction” value (F5.C4 tumors; F5.C4 tumors, tet withdrawn, listed as survivin Thr^34→Ala)?
Answer: massive areas of necrosis and prominent cellular apoptosis by TUNEL; also recorded: lack of normal mitotic figures and the presence of aberrant mitoses
